Measured values taken from PubChem BioAssay AID1259408 (Genetic Toxicology Data Bank (GENE-TOX), 2018).
Activity calls are given as the source filed them. The rule behind the calls is not given here.

Test system: GENE-TOX genotoxicity assays, various organisms and cells
Experiment: GENE-TOX mutagenicity studies
Conditions: for call: Assay Type: In vivo carcinogenicity studies
[1] = Species/Cell Type: Human lymphocytes, Assay Type: Sister-chromatid exchange (SCE) in vitro, Assay Code: SCL+D, Dose Response: With dose response, Evaluation Type: Evaluation B (Post-1980)
[2] = Species/Cell Type: Human, Assay Type: Sister-chromatid exchange (SCE) in vitro, Assay Code: SC1+D, Dose Response: With dose response, Evaluation Type: Evaluation B (Post-1980)
[3] = Species/Cell Type: Nonhuman, Assay Type: Sister-chromatid exchange (SCE) in vivo, Assay Code: SC3T, Evaluation Type: Evaluation B (Post-1980)
[4] = Species/Cell Type: Saccharomyces cerevisiae, Assay Type: Mitotic recombination or gene conversion, Assay Code: YEC-, Evaluation Type: Evaluation A (Pre-1980)
[5] = Species/Cell Type: Mouse, Sex: Male, Assay Type: Sperm morphology, Assay Code: SPI-, Evaluation Type: Evaluation A (Pre-1980)
[6] = Species/Cell Type: Nonhuman, Assay Code: CCG+, Evaluation Type: Evaluation A (Pre-1980)
[7] = Species/Cell Type: Drosophila melanogaster, Assay Type: Sex-linked recessive lethal gene mutation, Assay Code: SRLT, Evaluation Type: Evaluation A (Pre-1980)
[8] = Species/Cell Type: Rodents, Sex: Male, Assay Type: Dominant lethal test, Assay Code: DLT-, Evaluation Type: Evaluation A (Pre-1980)
[9] = Species/Cell Type: Salmonella typhimurium (one or more of the five standard strains: TA98, TA100, TA1535, TA1537, and TA1538), Assay Type: Histidine reverse gene mutation, Ames assay, Assay Code: SAL+*, Activation: With metabolic activation, Evaluation Type: Evaluation A (Pre-1980)
[10] = Species/Cell Type: Drosophila melanogaster, Assay Type: Sex-linked recessive lethal gene mutation, Assay Code: SRL+, Evaluation Type: Evaluation A (Pre-1980)
[11] = Species/Cell Type: Nonhuman, Assay Type: Sister-chromatid exchange (SCE) in vitro, Assay Code: SC2+D, Dose Response: With dose response, Evaluation Type: Evaluation B (Post-1980)
[12] = Species/Cell Type: Salmonella typhimurium (one or more of the five standard strains: TA98, TA100, TA1535, TA1537, and TA1538), Assay Type: Histidine reverse gene mutation, Ames assay, Assay Code: SAL+, Evaluation Type: Evaluation A (Pre-1980)
[13] = Species/Cell Type: Nonhuman, Assay Type: Sister-chromatid exchange (SCE) in vitro, Assay Code: SC2T, Evaluation Type: Evaluation B (Post-1980)
[14] = Species/Cell Type: Saccharomyces cerevisiae, Assay Type: Mitotic recombination or gene conversion, Assay Code: YEH-, Evaluation Type: Evaluation A (Pre-1980)

CN(C)CCCN1c2ccccc2Sc2ccc(Cl)cc21
mutagenic call (Species/Cell Type: Chinese hamster lung (V79) cells, Assay Type: Forward gene mutation at the HPRT or ouabain locus, Assay Code: V79-, Evaluation Type: Evaluation A (Pre-1980)): inactive; negative | mutagenic call [1]: active; positive | mutagenic call [2]: active; positive | call (Species/Cell Type: Nonhuman, Assay Code: CCGT, Evaluation Type: Evaluation A (Pre-1980)): no conclusion | mutagenic call (Species/Cell Type: Nonhuman, Assay Type: Sister-chromatid exchange (SCE) in vitro, Assay Code: SC2+D, Dose Response: With dose response, Evaluation Type: Evaluation A (Pre-1980)): active; positive | mutagenic call [3]: no conclusion

CCNc1nc(Cl)nc(NCC)n1 (tested in a mixture with another compound)
mutagenic call [4]: inactive; negative

O=C(O)c1cc(I)cc(I)c1I
mutagenic call (Species/Cell Type: Hordeum vulgare (barley), Assay Type: Chromosome aberrations, Assay Code: HOC+, Evaluation Type: Evaluation A (Pre-1980)): active; positive

C[C@]12CC[C@H]3[C@@H](CCC4=CC(=O)CC[C@@]43C)[C@@H]1CC[C@@H]2O
mutagenic call (Species/Cell Type: Human, Sex: Male, Assay Type: Sperm morphology, Assay Code: SPH+, Evaluation Type: Evaluation A (Pre-1980)): active; positive | mutagenic call [5]: inactive; negative | call [6]: active; positive

c1cc[n+]2c(c1)-c1cccc[n+]1CC2
mutagenic call [7]: no conclusion | mutagenic call [8]: inactive; negative | mutagenic call (Species/Cell Type: Saccharomyces cerevisiae, Assay Type: Mitotic recombination or gene conversion, Assay Code: YEC+, Evaluation Type: Evaluation A (Pre-1980)): active; positive

ClC1=C(Cl)C2(Cl)C3C(Cl)C=CC3C1(Cl)C2(Cl)Cl (centres undefined)
mutagenic call [7]: no conclusion | call (Species/Cell Type: Nonhuman, Assay Code: CCG+L, Evaluation Type: Evaluation A (Pre-1980)): active; positive | mutagenic call (Species/Cell Type: Zea mays (corn), Assay Type: Gene mutation, Assay Code: ZEM+, Evaluation Type: Evaluation A (Pre-1980)): active; positive

Cc1cc2ccccc2c2c(F)cc3ccccc3c12
mutagenic call (Species/Cell Type: Salmonella typhimurium (one or more of the five standard strains: TA98, TA100, TA1535, TA1537, and TA1538), Assay Type: Histidine reverse gene mutation, Ames assay, Assay Code: SALT, Evaluation Type: Evaluation A (Pre-1980)): no conclusion

CC(C)N(C(=O)SCC(Cl)=C(Cl)Cl)C(C)C
mutagenic call [9]: active; positive

ClCC1CO1 (centres undefined)
mutagenic call [10]: active; positive | mutagenic call (Species/Cell Type: Escherichia coli polA (W3119 vs P3478), Assay Type: Rec-assay, DNA effects (bacterial DNA repair), Assay Code: RE1+, Evaluation Type: Evaluation A (Pre-1980)): active; positive | mutagenic call (Species/Cell Type: Human lymphocytes or leukocytes, Assay Type: Chromosome aberrations in vitro, Assay Code: CY7+, Evaluation Type: Evaluation A (Pre-1980)): active; positive | mutagenic call (Species/Cell Type: Human lymphocytes or leukocytes, Assay Type: Chromosome aberrations in vivo, Assay Code: CY8+, Evaluation Type: Evaluation A (Pre-1980)): active; positive | mutagenic call [1]: active; positive | mutagenic call [2]: active; positive | mutagenic call (Species/Cell Type: Human, Sex: Male, Assay Type: Sperm morphology, Assay Code: SPH-, Evaluation Type: Evaluation A (Pre-1980)): inactive; negative | mutagenic call (Species/Cell Type: Mammalian polychromatic erythrocytes, Assay Type: Micronucleus test, chromosome aberrations, Assay Code: MNTT, Evaluation Type: Evaluation A (Pre-1980)): no conclusion | mutagenic call [5]: inactive; negative | mutagenic call (Species/Cell Type: Neurospora crassa, Assay Type: Forward gene mutation, Assay Code: NEF+, Evaluation Type: Evaluation A (Pre-1980)): active; positive | mutagenic call (Species/Cell Type: Neurospora crassa, Assay Type: Reverse gene mutation, Assay Code: NER+, Evaluation Type: Evaluation A (Pre-1980)): active; positive | call [6]: active; positive | mutagenic call [11]: active; positive | mutagenic call [12]: active; positive | mutagenic call (Species/Cell Type: Schizosaccharomyces pombe, Assay Type: Forward gene mutation, Assay Code: YEY+, Evaluation Type: Evaluation A (Pre-1980)): active; positive | mutagenic call (Species/Cell Type: Schizosaccharomyces pombe, Assay Type: Reverse gene mutation, Assay Code: YEZ+, Evaluation Type: Evaluation A (Pre-1980)): active; positive

CCOC(=O)N(CCOC(C)=O)N=O
mutagenic call [12]: active; positive

Nc1cccc(N)c1
mutagenic call (Species/Cell Type: Allium cepa, Assay Type: Chromosome aberrations, Assay Code: ALC+, Evaluation Type: Evaluation A (Pre-1980)): active; positive | mutagenic call (Species/Cell Type: Rodents, Sex: Male, Assay Type: Dominant lethal test, Assay Code: DLTT, Evaluation Type: Evaluation A (Pre-1980)): no conclusion | mutagenic call [9]: active; positive | mutagenic call (Species/Cell Type: Syrian hamster embryo (SHE) cells, Assay Type: Cell transformation, clonal assay, Assay Code: CTC+, Evaluation Type: Evaluation A (Pre-1980)): active; positive

Cc1cc(N(CCCl)CCCl)ccc1N=Nc1ccccc1C(=O)O
mutagenic call [10]: active; positive

CC(=O)c1ccc(S(=O)(=O)NC(=O)NC2CCCCC2)cc1
mutagenic call [3]: no conclusion

C[CH2][Pb]([CH2]C)([CH2]C)[CH2]C
mutagenic call (Species/Cell Type: Syrian hamster embryo (SA7/SHE) cells, Assay Type: Cell transformation, viral enhanced, Assay Code: CT7+, Evaluation Type: Evaluation A (Pre-1980)): active; positive

CCCSP(=S)(OCC)Oc1ccc(SC)cc1 (centres undefined)
mutagenic call [13]: no conclusion

CC(=O)NN
mutagenic call (Species/Cell Type: Mammalian polychromatic erythrocytes, Assay Type: Micronucleus test, chromosome aberrations, Assay Code: MNT+U, Dose Response: Unconfirmed positive response, Evaluation Type: Evaluation B (Post-1980)): active; positive

CN(C)CCC(=O)c1ccc2c(c1)OCO2
mutagenic call (Species/Cell Type: Salmonella typhimurium, Assay Type: Forward and reverse gene mutation, host-mediated assay, Assay Code: HMA-, Evaluation Type: Evaluation A (Pre-1980)): inactive; negative

COc1cc(NC(=O)c2ccccc2)c(OC)cc1[N+]#N
mutagenic call (Species/Cell Type: Bacillus subtilis (H17 vs M45), Assay Type: Rec-assay, spot test, DNA effects (bacterial DNA repair), Assay Code: REWT, Evaluation Type: Evaluation A (Pre-1980)): no conclusion

O=C1NC(c2ccc([N+](=O)[O-])s2)Nc2ccccc21 (centres undefined)
mutagenic call [12]: active; positive

c1ccc2c(c1)Sc1ccccc1N2CCCN1CCNCC1
mutagenic call (Species/Cell Type: Human lymphocytes, Assay Type: Sister-chromatid exchange (SCE) in vitro, Assay Code: SCLT, Evaluation Type: Evaluation B (Post-1980)): no conclusion | mutagenic call (Species/Cell Type: Human, Assay Type: Sister-chromatid exchange (SCE) in vitro, Assay Code: SC1T, Evaluation Type: Evaluation B (Post-1980)): no conclusion

CC(=O)[O-].CC(=O)[O-].CC(=O)[O-].[Cr+3]
mutagenic call (Species/Cell Type: Chinese hamster ovary (CHO) cells, Assay Type: Forward gene mutation at the HPRT locus, Assay Code: CHOT, Evaluation Type: Evaluation B (Post-1980)): no conclusion | mutagenic call [13]: no conclusion

C/C=C/C#CC#CC#C/C=C/C(O)CO (centres undefined)
mutagenic call [13]: no conclusion

NCC(O)CCl (centres undefined)
mutagenic call [8]: inactive; negative

Clc1cc2oc3cc(Cl)c(Cl)cc3c2cc1Cl
mutagenic call (Species/Cell Type: Saccharomyces cerevisiae, Assay Type: Forward gene mutation, Assay Code: YEF-, Evaluation Type: Evaluation A (Pre-1980)): inactive; negative | mutagenic call [4]: inactive; negative | mutagenic call [14]: inactive; negative

Nc1ncnc2c1ncn2[C@H]1C[C@H](O)[C@@H](CO)O1
mutagenic call (Species/Cell Type: Glycine max (soybean), Assay Type: Gene mutation, Assay Code: GLM-, Evaluation Type: Evaluation A (Pre-1980)): inactive; negative | mutagenic call [13]: no conclusion

Nc1ccc(-c2ccc(N)cc2Cl)c(Cl)c1
mutagenic call (Species/Cell Type: Human diploid fibroblasts, Assay Type: Unscheduled DNA synthesis (UDS) in vitro, DNA effects, Assay Code: UDH+*, Activation: With metabolic activation, Evaluation Type: Evaluation A (Pre-1980)): active; positive

CCC1(c2ccccc2)CCC(=O)NC1=O (centres undefined)
mutagenic call (Species/Cell Type: Drosophila melanogaster, Assay Type: Aneuploidy, sex chromosome gain, chromosome aberrations, Assay Code: DAG-M, Evaluation Type: Evaluation A (Pre-1980)): inactive; negative | mutagenic call (Species/Cell Type: Drosophila melanogaster, Assay Type: Aneuploidy, whole sex chromosome loss, chromosome aberrations, Assay Code: DAC-M, Evaluation Type: Evaluation A (Pre-1980)): inactive; negative

O=c1cc(CO)occ1O
mutagenic call [9]: active; positive

c1ccc2c(c1)-c1cccc3cccc-2c13
mutagenic call (Species/Cell Type: Chinese hamster ovary (CHO) cells, Assay Type: Forward gene mutation at the HPRT locus, Assay Code: CHO+*, Activation: With metabolic activation, Evaluation Type: Evaluation B (Post-1980)): active; positive | mutagenic call (Species/Cell Type: Fischer rat embryo (RLV/1706) cells, Assay Type: Cell transformation, viral enhanced, Assay Code: CTRT, Evaluation Type: Evaluation A (Pre-1980)): no conclusion | mutagenic call [11]: active; positive | mutagenic call (Species/Cell Type: Nonhuman, Assay Type: Sister-chromatid exchange (SCE) in vivo, Assay Code: SC3-, Evaluation Type: Evaluation B (Post-1980)): inactive; negative

CN(C)C(=O)Nc1ccc(Oc2ccc(Cl)cc2)cc1
mutagenic call [4]: inactive; negative

CNC(C)C1CCC(N)C(OC2C(N)CC(N)C(OC3OCC(C)(O)C(NC)C3O)C2O)O1 (centres undefined)
mutagenic call [14]: inactive; negative
